The values below are quoted from earlier work in article PMC7426938, “Induction of mitochondria-mediated apoptosis and suppression of tumor growth in zebrafish xenograft model by cyclic dipeptides identified from Exiguobacterium acetylicum” (Scientific Reports, 2020).

SMILES strings stand for the structures. ≈ marks a conversion by molar mass, not a printed value.

Series [1] deals with HT-29 cells. Also noted: method as in PMID 29211005, PMID 10052845. Conditions: cited from earlier work.
For series [2], the system named is HL-60 cells. Also noted: method as in PMID 29211005, PMID 10052845. Conditions: cited from earlier work.
Series [3] relates to HeLa cells. Also noted: method as in PMID 15274345. Conditions: read-out: dose giving 50% growth inhibition; cited from earlier work.
Series [4] relates to MCF-7 cells. Also noted: method as in PMID 15274345. Conditions: read-out: dose giving 50% growth inhibition; cited from earlier work.
The subject of series [5] is HT-29 cells. Also noted: method as in PMID 15274345. Conditions: read-out: dose giving 50% growth inhibition; cited from earlier work.

For `CC(C)C[C@@H]1NC(=O)[C@H](NC(=O)c2cccc(O)c2O)CCCNC1=O` [petrocidin-A], the “IC50, anti-proliferative effect” value is 5.3 µg/mL (≈ 14.6 µM) in series [1] and 3.9 µg/mL (≈ 10.7 µM) in series [2].
Take `O=C1NC(Cc2ccc(O)cc2)C(=O)N2CCCC12` (centres unmarked) [cyclo (Tyr-Pro)]: the IC50 in series [3], in series [4] and in series [5] was less than 7 mM each time.
Take `O=C1NC(Cc2ccccc2)C(=O)N2CCCC12` (centres unmarked) [cyclo (Phe-Pro)]: the IC50 in series [3], in series [4] and in series [5] was less than 7 mM in each case.
